Test results published in US12564630B2, “Vaccine adjuvants” (priority 2020, dated 2026).

Columns and labels:
[1] = Chemisorption to aluminum hydroxide ("Alum") quantified by liquid chromatography-mass spectrometry; type: physicochemical
From the text: Chemisorption was quantified by liquid chromatography-mass spectrometry. When appropriate ratios of the adjuvant and aluminum hydroxide are used, all of the adjuvant is bound to alum. This ensures delivery of the adjuvant to the draining lymph nodes, and minimizes systemic exposure. It is important not to exceed the ratio to avoid the presence of excess small molecule adjuvant. […] The ratio can range from 1:10 (mg Compound 1:mL aluminum hydroxide gel) to 10:1, or from 1:8 to 8:1, or 1:5 to 5:1; or 1:2 to 2:1, or about 1:1.
The Compound is chemisorbed onto aluminum hydroxide to form an adjuvant complex referred to herein as (“Alhydroxiquim-II”). The trihydroxybenzyl appendage of the adjuvant Compound 1 ligand-exchanges with the hydroxyl groups of aluminum hydroxide (chemisorption). When appropriate ratios of the adjuvant and aluminum hydroxide are used, all of the adjuvant is bound to alum. This ensures delivery of the adjuvant to the draining lymph nodes, and minimizes systemic exposure. It is important not to exceed the ratio to avoid the presence of excess small molecule adjuvant.
Chemisorption was quantified by liquid chromatography-mass spectrometry.

[2] = human trials; cited from earlier work
[3] = 10 mg of the small-molecule to 10 mL of standard Alhydrogel (10 mg of aluminum content/mL)

Structure (SMILES) | binding to aluminum hydroxide gel (Alhydrogel) [1, 3] | concentrations of free small molecule [1, 3] | chemisorption to “Alum” ([1]; quantified by LC-MS, FIG. 2) | tolerability (systemic side effects including fever, headache, malaise, and myalgia) [2]
CCCCc1nc2c(N)nc3ccccc3c2n1Cc1cccc(CNC(=O)c2cc(O)c(O)c(O)c2)c1 [Compound 1, N-(3-((4-amino-2-butyl-1H-imidazo[4,5-c]quinolin-1-yl)methyl)benzyl)-3,4,5-trihydroxybenzamide] | complete binding | undetectable | saturable | –
CCOCc1nc2c(N)nc3ccccc3c2n1CC(C)(C)O [Resiquimod] | – | – | – | poorly tolerated
